The values that follow come from patent publication US12703729B2, “GIP agonist compounds and methods” (Zealand Pharma A/S, priority 2014, dated 2026).

Each structure is given as a SMILES string. Starred links: 1 amine or outer side, 2 acyl side, 3 side chain; linkers in the order of their positions; H or OH if unused. Non-standard residues stand in square brackets, D forms with d. Residues, ends and D or L forms follow the SMILES beside them. Groups on a side chain read outwards from the residue. *: point of attachment. C20 diacid = O=C(O)CCCCCCCCCCCCCCCCCCC(=O)*; γGlu = O=C(O)[C@H](CCC(=O)[*:2])N[*:1]; AEEA = NCCOCCOCC(=O)O; Aib = CC(C)(N)C(=O)O Some results are limits rather than exact numbers.

A short description of one series: in vivo. The conditions noted are these: male, C57BL/6J, mouse; for bioavailability: Bioavailability s.c.; for half-life: 200 nmol/kg.
In another series the target is T1, human GIP R (Homo sapiens, UniProt P48546).
T1 sequence (P48546 22-466): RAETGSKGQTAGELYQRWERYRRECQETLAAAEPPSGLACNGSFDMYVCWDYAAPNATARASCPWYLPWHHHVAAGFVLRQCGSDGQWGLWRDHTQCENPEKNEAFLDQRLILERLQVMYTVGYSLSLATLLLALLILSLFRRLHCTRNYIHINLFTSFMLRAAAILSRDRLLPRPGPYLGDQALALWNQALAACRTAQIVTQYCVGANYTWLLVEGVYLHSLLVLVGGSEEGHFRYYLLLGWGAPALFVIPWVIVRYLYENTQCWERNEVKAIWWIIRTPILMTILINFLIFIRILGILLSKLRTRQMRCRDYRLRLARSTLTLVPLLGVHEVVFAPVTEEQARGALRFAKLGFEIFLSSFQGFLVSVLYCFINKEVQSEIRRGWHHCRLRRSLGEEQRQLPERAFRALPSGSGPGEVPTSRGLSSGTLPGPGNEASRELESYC
Kind of series: cell-based.

Series [1] addresses T2, human GIP receptor (GIP R) (Homo sapiens, UniProt P48546).
T2 sequence (P48546 22-466): T1 sequence (P48546 22-466)
The experiment in a line: Activity assay at human GIP receptor, cAMP induction (AlphaScreen), Example 3.

Series [2] has as its target human GLP-1 receptor (GLP-1R) (Homo sapiens, UniProt P43220). Kind of series: Activity assay at human GLP-1 receptor, cAMP induction (AlphaScreen), Example 3.

Sequence of human GLP-1 receptor (GLP-1R) (P43220 24-463): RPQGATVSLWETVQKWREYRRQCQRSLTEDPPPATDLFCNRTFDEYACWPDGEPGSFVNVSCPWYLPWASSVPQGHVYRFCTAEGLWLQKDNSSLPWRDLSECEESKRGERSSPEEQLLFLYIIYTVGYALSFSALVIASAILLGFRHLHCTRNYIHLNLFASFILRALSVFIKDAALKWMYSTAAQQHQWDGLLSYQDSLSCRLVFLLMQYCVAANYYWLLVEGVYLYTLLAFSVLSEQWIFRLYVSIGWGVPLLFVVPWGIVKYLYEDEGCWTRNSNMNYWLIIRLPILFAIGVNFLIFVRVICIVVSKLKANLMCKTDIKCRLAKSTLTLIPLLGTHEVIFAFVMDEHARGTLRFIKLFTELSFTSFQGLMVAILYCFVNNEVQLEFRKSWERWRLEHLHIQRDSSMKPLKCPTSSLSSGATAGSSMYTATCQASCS

By bioavailability is commonly meant the share of a dose that reaches the circulation, judged against a reference dose that is usually intravenous. A higher bioavailability goes with good availability. What is called half-life is the time in which the quantity being followed falls by half. Read a low half-life as fast loss. The term Tmax denotes the time at which the peak concentration occurs. By EC50 is commonly meant the concentration that produces a half-maximal response. Consider `CC[C@H](C)[C@H](NC(=O)[C@H](CO)NC(=O)[C@H](Cc1ccc(O)cc1)NC(=O)[C@H](CC(=O)O)NC(=O)[C@H](CO)NC(=O)[C@@H](NC(=O)[C@H](Cc1ccccc1)NC(=O)[C@@H](NC(=O)CNC(=O)[C@H](CCC(=O)O)NC(=O)C(C)(C)NC(=O)[C@@H](N)Cc1ccc(O)cc1)[C@@H](C)O)[C@@H](C)CC)C(=O)N[C@@H](CCC(=O)O)C(=O)N[C@@H](CC(C)C)C(=O)N[C@@H](CC(=O)O)C(=O)N[C@@H](CCCCN)C(=O)N[C@@H](CCCCNC(=O)COCCOCCNC(=O)COCCOCCNC(=O)CC[C@H](NC(=O)CCCCCCCCCCCCCCCCCCC(=O)O)C(=O)O)C(=O)N[C@@H](C)C(=O)N[C@@H](C)C(=O)N[C@@H](CCC(N)=O)C(=O)N[C@@H](CC(=O)O)C(=O)N[C@@H](Cc1ccccc1)C(=O)N[C@H](C(=O)N[C@@H](CC(N)=O)C(=O)N[C@@H](Cc1c[nH]c2ccccc12)C(=O)N[C@@H](CC(C)C)C(=O)N[C@@H](CC(C)C)C(=O)N[C@@H](C)C(=O)N[C@@H](CCC(N)=O)C(=O)NCC(=O)N1CCC[C@H]1C(=O)N[C@@H](CO)C(=O)N[C@@H](CO)C(=O)NCC(=O)N[C@@H](C)C(=O)N1CCC[C@H]1C(=O)N1CCC[C@H]1C(=O)N1CCC[C@H]1C(=O)N[C@@H](CO)C(N)=O)C(C)C` [Compound 10] (H-Y[Aib]EGTFISDYSIELDKK([AEEA-AEEA-γGlu-C20 diacid])AAQDFVNWLLAQGPSSGAPPPS-NH2), for which the bioavailability in “in vivo” came out at 100%; in “in vivo” (sc, repeated test), 77%. The half-life is 16.9 h in the series “in vivo” (iv, Terminal elimination half-life T½ i.v.) and 21.1 h in “in vivo” (sc, Terminal elimination half-life T½ s.c.). Besides, in “in vivo” (sc), the Tmax came to 4 h. The EC50 on human GIP R is 7 pM; in series [1] it was 8 pM; in series [2], above 10000 pM.
For the compound `CC[C@H](C)[C@H](NC(=O)[C@H](Cc1ccccc1)NC(=O)[C@H](C)NC(=O)[C@H](CCC(N)=O)NC(=O)[C@H](C)NC(=O)[C@H](C)NC(=O)[C@H](CCCCNC(=O)COCCOCCNC(=O)COCCOCCNC(=O)CC[C@H](NC(=O)CCCCCCCCCCCCCCCCCCC(=O)O)C(=O)O)NC(=O)[C@H](CCCCN)NC(=O)[C@H](CC(=O)O)NC(=O)[C@H](CC(C)C)NC(=O)[C@H](CCC(=O)O)NC(=O)[C@@H](NC(=O)[C@H](CO)NC(=O)[C@H](Cc1ccc(O)cc1)NC(=O)[C@H](CC(=O)O)NC(=O)[C@H](CO)NC(=O)[C@@H](NC(=O)[C@H](Cc1ccccc1)NC(=O)[C@@H](NC(=O)CNC(=O)[C@H](CCC(=O)O)NC(=O)C(C)(C)NC(=O)[C@@H](N)Cc1ccc(O)cc1)[C@@H](C)O)[C@@H](C)CC)[C@@H](C)CC)C(=O)N[C@@H](CCC(=O)O)C(=O)N[C@@H](Cc1c[nH]c2ccccc12)C(=O)N[C@@H](CC(C)C)C(=O)N[C@@H](CC(C)C)C(=O)N[C@@H](C)C(=O)N[C@@H](CCC(N)=O)C(=O)NCC(=O)N1CCC[C@H]1C(=O)N[C@@H](CO)C(=O)N[C@@H](CO)C(=O)NCC(=O)N[C@@H](C)C(=O)N1CCC[C@H]1C(=O)N1CCC[C@H]1C(=O)N1CCC[C@H]1C(=O)N[C@@H](CO)C(N)=O` [Compound 40], the EC50 at human GIP R was 10 pM; in series [1], 7 pM; in series [2], above 10000 pM.
